Experimental data as given in ChEMBL document CHEMBL1123725, “Effect of reductive alkylation of D-lysine in position 6 on the histamine-releasing activity of luteinizing hormone-releasing hormone antagonists” (1987).
In brackets after ≈: the same amount, converted by molar mass.

System: rat peritoneal mast cells (Rattus norvegicus)
Assay: In vitro histamine-release activity by using peritoneal cells from male Sprague-Dawley rats in a standard assay

ED50: 46 µg/mL (≈ 32.5 µM)
SMILES: CC(=O)NC(Cc1ccc2ccccc2c1)C(=O)NC(Cc1ccccc1)C(=O)NC(Cc1ccccc1)C(=O)N[C@@H](CO)C(=O)N[C@@H](Cc1ccc(O)cc1)C(=O)NC(Cc1c[nH]c2ccccc12)C(=O)NC(Cc1ccccc1)C(=O)N[C@@H](CC(C)C)C(=O)N1CCC[C@@H]1C(=O)NC(C)C(N)=O (stereo in doubt)
